Measured values: the NIST ThermoML archive (doi:10.1016/j.jct.2015.05.028)

Columns and labels:
[1] = Crystal; DTA
[2] = mn = molality of the nth substance listed, in mol/kg; details: 99.6 kPa, Liquid, Vibrating tube method

CCN1C(=O)N(CC)C2NC(=O)NC21 (centres undefined)
Details | Normal melting temperature [°C]
[1] | 327.64

CN1C(=O)N(C)C2NC(=O)NC21 (centres undefined)
Details | Normal melting temperature [°C]
[1] | 253.28

CN1C(=O)N(C)C2NC(=O)NC21 (centres undefined) + O
mass density [kg/m3], [2]
Details | 278.15 K | 288.15 K | 298.15 K | 308.15 K | 318.15 K
m1 = 0.06671 | 1003.16 | 1002.21 | 1000.08 | 997.02 | 993.153
m1 = 0.0951 | 1004.51 | 1003.52 | 1001.37 | 998.281 | 994.389
m1 = 0.1319 | 1006.28 | 1005.23 | 1003.04 | 999.917 | 995.999
m1 = 0.169 | 1008.03 | 1006.93 | 1004.72 | 1001.55 | 997.607
m1 = 0.1987 | 1009.43 | 1008.31 | 1006.04 | 1002.87 | 998.902
m1 = 0.2323 | 1011.02 | 1009.84 | 1007.54 | 1004.34 | 1000.35
m1 = 0.2679 | 1012.68 | 1011.46 | 1009.13 | 1005.9 | 1001.88
m1 = 0.3038 | 1014.37 | 1013.1 | 1010.73 | 1007.47 | 1003.42
m1 = 0.3326 | 1015.72 | 1014.41 | 1012.01 | 1008.71 | 1004.65
m1 = 0.3594 | 1016.96 | 1015.62 | 1013.19 | 1009.88 | 1005.79
m1 = 0.3919 | 1018.47 | 1017.09 | 1014.62 | 1011.29 | 1007.17

O [water] + CCN1C(=O)N(CC)C2NC(=O)NC21
Details | mass density [kg/m3]
[2], 278.15 K, m2 = 0 | 999.964

O [water] + CN1C(=O)N(C)C2NC(=O)NC21
Details | mass density [kg/m3]
[2], 278.15 K, m2 = 0 | 999.965
